The subject of experiment [1] is scopolamine-induced learning and memory deficits. The experiment in a line: Morris water maze, scopolamine-induced learning deficits (escape latency). It counts as in vivo, Male Wistar rats. The protocol:
Learning and memory performance: Learning and memory performances were tested in the conventional Morris water maze according to the following procedure. The Morris maze includes a circular water tank (150 cm in diameter) filled with water and maintained at 27° C. with an escape platform (15 cm in diameter) 18 cm from the perimeter always in the same position 2 cm beneath the surface of the water. The water is made opaque by addition of milk powder rendering the platform invisible.
Male Wistar rats (200-230 g body weight, maintained in standard laboratory conditions) were given a single training session on one day. A training session consists of 4 consecutive trials (T1-T4) in the Morris water maze separated by 60 seconds. For each trial the animal is placed in the maze at one of two starting points equidistant from the escape platform and allowed to find the escape platform. The animal is left on the escape platform for 60 seconds before starting a new trial. […] During the 4 trials the animals start the maze twice from each starting point in a randomly determined order per animal. The time the animal takes to find the escape platform is referred to as the “escape latency.”
Measure of escape latency in control and test animals: The ampakine, the nemdakine, and the combination of ampakine and nemdakine of the present invention were administered p.o. to test animals 60 minutes before a test session in the maze (t=−60 min). Scopolamine was administered i.p. to induce learning and memory deficits 30 minutes later, i.e., 30 minutes before the test session in the maze (t=−30 min). Scopolamine induces amnesia as shown by the failure of scopolamine-treated animals to reduce their escape latencies from trial to trial. […]
The principal measure taken at each trial was the escape latency. Measures consisted in the time the animals took to find the platform and were analyzed by ANOVA with repeated measures. […]

For experiment [2], the target named is T1, GluR4 flip (Homo sapiens, UniProt P48058).
T1 construct: expressed in transfected cells; host or cells: HEK cells
Conditions: HEK cells expressing GluR4 flip; read-out: potentiation of the L-glutamate mediated currents; cited from earlier work.

The subject of experiment [3] is AMPA-induced currents in cerebellar Purkinje cells as well as in hippocampal pyramidal neurons. Description: Increase of AMPA-induced currents in neurons (Gates et al.). It counts as cell-based. The text has this:
The ampakine functionality of LB-253-4c is a biarylpropylsulfonamide (Ornstein et al., ibid). […] The new fusion molecule, LB-253-4c, therefore, likely has a different mode of action compared to that of cyclothiazide, a mode of action more directed towards deactivation instead of desensitization.

Experiment [4] concerns adult mice hippocampal slices. The experiment in a line: LTP induction in hippocampal slices (EPSP slopes in CA1 after theta-burst stimulation). Format: cell-based. How it is done: Adult mice hippocampal slices were prepared according to standard procedures as described in Dunwiddie and Lynch (J. Physiol. 276:353-367. 1978). Briefly, mice were decapitated following anesthesia, the brains rapidly removed and the hippocampus dissected. Transverse hippocampal slices (400 μm thick) were cut with a McIllwain tissue slicer (Stoelting Co., Wood Dale, Ill.). Slices were pre-incubated for at least 60 min in an artificial cerebrospinal fluid (aCSF) containing (in mM) NaCl (124), KCl (3), KH2PO4 (1.25), MgSO4 (2.5), CaCl2 (3.4), NaHCO3 (26), glucose (10); and L-ascorbate (2) before being placed in a recording chamber. Slices were continuously perfused with aCSF containing no added drug, 20 μM CX546, 2 μM D, L-serine, or a combination of 20 μM CX546 and 2 μM D, L-serine. A stimulating electrode was placed in the stratum radiatum at the junction of CA3 and CA1 and a recording electrode was placed in the stratum radiatum of CA1. Baseline recording with a stimulation frequency of 0.033 Hz was done for at least 10 min. After obtaining a stable baseline for 10 min, LTP was elicited in CA1 stratum radiatum by stimulation of the Schaffer collateral pathways by using high frequency stimulation of 5 bursts of 3 pulses at 100 Hz, with the bursts delivered at the theta frequency, i.e., 5 Hz. Low frequency stimulation was resumed and responses recorded for at least 30 min.
Slopes of the extracellular postsynaptic potentials (EPSPs) were calculated and expressed as percent of the average values recorded during the 10 min baseline period. Results were averaged and expressed as means±s.e.m.
In particular, slices were prepared as cited above and EPSPs were evoked in CA1 stratum radiatum by stimulation of the Schaffer collateral pathways once every 30 seconds. At t=0, high frequency stimulation (5 bursts of 3 pulses at 100 Hz with bursts delivered at 5 Hz) was delivered, and low frequency stimulation resumed. Slopes of EPSPs were calculated and expressed as percent over the average values during the 10 minute baseline. […] The data of FIG. 3 therefore represent the means±s.e.m., of 8 slices for control conditions (●), and 6 slices for the combination of 250 μM piracetam and 2 μM D, L-serine (▪). Results were statistically significant with ANOVA with repeated measures.
Slices were incubated in control medium. LB-302 (100 μM) was added to the medium at t=20 min and LTP was induced as in Example 1 by using high frequency stimulation of 5 bursts of 3 pulses at 100 Hz, with the bursts delivered at the theta frequency, i.e., 5 Hz delivered at t=47 min.

The target in experiment [5] is T1, GluR4 flip. The experiment in a line: Potentiation of L-glutamate mediated currents on HEK cells expressing GluR4 flip (Ornstein et al.). Format: cell-based. The protocol:
From a study of the structure-activity relationship of the compounds of Ornstein (Ornstein, et al., 2000, ibid), a derivative of LY404187 designated 22h was chosen to provide the ampakine functionality of the new fusion molecule. The structural difference between LY404187 and the 22h derivative is that 22h has an amino substituent on the distal aromatic ring of the biphenyl group instead of a cyano substituent.

The test system of experiment [6] is LTP. Conditions: agent alone; cited from earlier work.

Entries after “also recorded” stand apart in the source; their conditions may differ.

T1 sequence (P48058 21-902): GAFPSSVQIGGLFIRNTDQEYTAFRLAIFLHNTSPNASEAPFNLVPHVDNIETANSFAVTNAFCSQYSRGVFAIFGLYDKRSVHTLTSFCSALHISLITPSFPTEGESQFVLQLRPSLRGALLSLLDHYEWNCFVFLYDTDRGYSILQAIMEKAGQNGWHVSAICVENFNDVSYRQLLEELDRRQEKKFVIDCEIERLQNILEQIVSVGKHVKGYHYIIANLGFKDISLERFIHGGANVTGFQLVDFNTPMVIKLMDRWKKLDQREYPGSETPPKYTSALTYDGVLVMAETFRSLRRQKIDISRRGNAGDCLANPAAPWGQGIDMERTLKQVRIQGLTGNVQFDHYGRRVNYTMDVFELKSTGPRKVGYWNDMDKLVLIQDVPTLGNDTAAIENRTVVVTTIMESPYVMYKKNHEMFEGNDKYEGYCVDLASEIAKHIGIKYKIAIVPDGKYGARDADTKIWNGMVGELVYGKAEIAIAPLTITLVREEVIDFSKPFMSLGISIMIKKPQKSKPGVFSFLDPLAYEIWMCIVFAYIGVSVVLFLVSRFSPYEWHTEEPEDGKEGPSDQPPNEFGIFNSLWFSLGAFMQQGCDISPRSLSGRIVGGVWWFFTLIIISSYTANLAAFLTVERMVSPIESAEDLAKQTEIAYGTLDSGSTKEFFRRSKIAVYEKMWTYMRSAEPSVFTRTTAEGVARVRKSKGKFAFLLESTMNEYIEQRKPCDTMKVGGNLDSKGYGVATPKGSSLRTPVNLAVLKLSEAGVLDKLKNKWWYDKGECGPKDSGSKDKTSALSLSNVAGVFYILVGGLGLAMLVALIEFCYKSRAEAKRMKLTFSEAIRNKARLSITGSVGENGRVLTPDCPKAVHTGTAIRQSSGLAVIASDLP

For `CN1[C@@H]2C[C@@H](OC(=O)[C@H](CO)c3ccccc3)C[C@H]1[C@@H]1O[C@@H]12` [scopolamine], in experiment [1] (scopolamine alone 0.5 mg/kg i.p. at t=−30 min), the “performance (escape latency) across the 4 trials” value was “failed to improve their performance across the 4 trials”. As for `CC(CNS(=O)(=O)C(C)C)c1ccc(-c2ccc(C#N)cc2)cc1` (centres unmarked) [LY404187, N-2-(4-(cyanophenyl)phenyl)propyl-2-propanesulfonamide], in experiment [2], the EC50 is 0.29 µM. In addition, the “potency relative to CX546” value in experiment [3] was “about 1000 times”.

As to `NC(CO)(CC1=CCN(Cc2ccccc2)CC1)C(=O)O` (centres unmarked) [LB-302, 2-amino-3-(1-benzyl-1,2,3,6-tetrahydro-pyridin-4-yl)-2-hydroxymethyl-propionic acid], in experiment [4] (LB-302 100 μM), the LTP amplitude entry was “dramatic increase in LTP amplitude” and the baseline response result is recorded as “small increase in baseline response”. `CC(CNS(=O)(=O)C(C)C)c1ccc(-c2ccc(N)cc2)cc1` (centres unmarked) [22h]: in experiment [5], the “activity relative to LY404187” value is “about 2 fold”. On to `NC(CO)C(=O)O` (racemic) [D, L-serine], for which, in experiment [4] (2 μM D, L-serine alone), the “levels of potentiation / responses (EPSP slope) as compared to control slices” value is “did not modify the levels of potentiation; also recorded: did not produce any significant effect”. On to `NC(=O)CN1CCCC1=O` [piracetam], for which, in experiment [4] (piracetam 250 μM alone), the “effect on the responses (EPSP slope)” value was “did not produce any significant effect”. Moreover, the “reversal of scopolamine-induced learning impairment” value in experiment [1] (500 mg/kg p.o. at t=−60 min, then scopolamine 0.5 mg/kg i.p.) is on record as “trend towards a reversal of scopolamine-induced learning impairment, although this effect did not reach statistical significance”. `N[C@H](CO)C(=O)O` [D-serine]: the “concentration known to facilitate LTP” value in experiment [6] is 10 µM. Besides, in experiment [1] (1000 mg/kg p.o. at t=−60 min, then scopolamine 0.5 mg/kg i.p.), the “reversal of scopolamine-induced impairment” value was “statistically significant reversal of scopolamine-induced impairment”.

These data come from patent US20060063707A1, “Compositions for enhancing memory and methods therefor” (Lifelike Biomatic, Inc., priority 2004, published 2006).
